Measured values taken from patent US9963475B2, “Anthracene-9, 10-dione dioxime compound prodrugs and their uses” (Beta Cat Pharmaceuticals, Inc., priority 2015, dated 2018).
Structures can show the parent of a compound that is named as a salt. Where two headings read alike, the source gives them in different places. Blank lines part the entries; values can stand above or below the compound they belong to.

What was measured:
[1] = Pharmacokinetics of Compound 10 (prodrug) and estimation of Compound 1 (parent) following oral and intravenous administration; format: in vivo, Male Sprague Dawley Rats; conditions: for Vd / AUC(0-inf) / AUC(0-t) / clearance / half-life / MRT last: male, Sprague Dawley; for Vd: rat, plasma, iv, 1.28 mg/kg; for AUC(0-inf) / AUC(0-t) / clearance / half-life / MRT last / AUCExtra / Co: rat plasma; for AUC(0-inf) / AUC(0-t) / clearance / half-life / MRT last / AUCExtra: IV 1.28 mg/kg sodium salt of compound 10; for MRT last: read-out: MRT0-last; for Co: IV 1.28 mg/kg sodium salt of compound 10, mean concentration data
Excerpt: Pharmacokinetics of Compound 10 (Prodrug) and Estimation of Compound 1 (Parent) Following Oral and Intravenous Administration in Male Sprague Dawley Rats

[2] = Mouse PK study with Compound 24; conditions: in vivo; for bioavailability: nominal doses and AUClast of IV (1 mg/kg) and PO (10 mg/kg) used
Excerpt: Mouse PK Study with Compound 24 Summary of Pharmacokinetic Parameters of Compound 24 and Tegavivint: […]

[3] = Solubility assay in buffer (pH 1 and pH 6), LC-MS/MS; format: physicochemical
Description: (§1) A stock solution of the compound will be prepared in dimethylsulfoxide (DMSO) at 10 mM concentration. This stock solution will be serially diluted in DMSO to get stock solutions of 5, 2.5, 1.25, 0.625, 0.312, 0.156, and 0.078 mM. Working solutions of compound at a range of concentrations (100, 50, 25, 12.5, 6.25, 3.12, 1.56, and 0.78 μM) will be prepared in different buffers (pH 1 and 6).
(§2) In a 100 mL bottle, 33.5 mL of 0.2 M hydrochloric acid solution will be added to 12.5 mL of 0.2 M potassium chloride solution and diluted to […] with Milli-Q® water. The pH of the buffer solution will be adjusted to 1.0 with 0.2 M HCl solution and finally, volume will be made to 100 mL with Milli-Q® water.
(§3) In a 100 mL bottle, 6.15 mL of 0.2 M disodium hydrogen phosphate (dibasic) and 43.85 mL of 0.2 M sodium dihydrogen phosphate (monobasic) solution will be added. The pH of the buffer solution will be adjusted to 6.0 using the phosphate solutions. The volume will be made to 100 mL with Milli-Q® water.
The study will be performed in a 96-well deep well plate by spiking 10 μL stock solutions into 990 μL buffer. Spiked buffer samples will be maintained at room temperature for 2 h. Incubations will be performed in duplicates. The plate will be centrifuged at 4000 rpm for 20 min at room temperature to enable the insoluble particles/precipitates to settle down. The supernatant will be diluted 1:1 with acetonitrile and internal standard will be added. The samples will be analyzed using LC-MS/MS.
(§4) The samples will be analysed for BC3005 using a fit-for-purpose LC-MS/MS method. If the sample concentration is above upper limit of quantification, the samples will be diluted and read against the calibration curve.
(§5) The concentration in samples will be determined against the calibration curve by using the following equation: Y=mX+C

[4] = Stability assay in buffer (pH 1 and pH 6), LC-MS/MS; format: physicochemical
Description: as §1, §2, §3
The study will be performed in a 96-well deep well plate by spiking 10 μL of stock solutions into 990 μL buffer and 100 μL aliquots will be withdrawn at 0 and 120 min. The aliquots will be collected in centrifuge tubes containing 100 μL of acetonitrile. To the quenched samples, internal standard will be added and they will be taken for analysis using LC-MS/MS spectrometry. The experiments will be performed in duplicate in an orbital shaker maintained at 37° C. at 60 rpm.
as §4, §5

[5] = IV 1.28 mg/kg sodium salt of compound 10, read-out: Vd
[6] = IV 1.28 mg/kg sodium salt of compound 10, read-out: Vdss
[7] = IV 1 mg/kg Compound 24, read-out: T½ (converted)
[8] = PO 10 mg/kg Compound 24, read-out: C0/Cmax
[9] = aqueous buffer pH 1, simulated gastric fluid, kinetic from dmso stock, pH 1, room temperature
[10] = aqueous buffer pH 6, aqueous buffer, kinetic from dmso stock, pH 6, room temperature

solubility at 2 h [3, 9]: > 100 µM
solubility at 2 h [3, 10]: < 0.78 µM
% Compound remaining at 120 min ([4]; pH 1, 37° C.): 101%
% Compound remaining at 120 min ([4]; pH 6, 37° C.): 93%
AUC(0-inf) ([2]; IV 1 mg/kg Compound 24): 379 ng·h/mL
AUC(0-t) ([2]; IV 1 mg/kg Compound 24): 376 ng·h/mL
MRT inf ([2]; IV 1 mg/kg Compound 24): 0.476 h
clearance ([2]; IV 1 mg/kg Compound 24): 43.9 mL/min/kg
Cmax ([2]; IV 1 mg/kg Compound 24, C0 back extrapolated concentration at time zero): 2370 ng/mL
half-life [2, 7]: 0.748 h
Vd ([2]; IV 1 mg/kg Compound 24, read-out: VSS): 1.25 L/kg
AUC(0-inf) ([2]; PO 10 mg/kg Compound 24): 78.2 ng·h/mL
AUC(0-t) ([2]; PO 10 mg/kg Compound 24): 60.5 ng·h/mL
MRT inf ([2]; PO 10 mg/kg Compound 24): 1.36 h
Tmax ([2]; PO 10 mg/kg Compound 24): 0.25 h
Cmax [2, 8]: 60.7 ng/mL
half-life ([2]; PO 10 mg/kg Compound 24, read-out: T½ (converted)): 0.873 h
bioavailability [2]: 2%
SMILES: CCC(C)C(N)C(=O)OCON=C1c2ccc(S(=O)(=O)N3C[C@H](C)C[C@H](C)C3)cc2C(=NO)c2cc(S(=O)(=O)N3C[C@H](C)C[C@H](C)C3)ccc21 (stereo partly drawn) [Compound 24, ((((9E,10E)-3,6-bis(((3R,5S)-3,5-dimethylpiperidin-1-yl)sulfonyl)-10-(hydroxyimino)anthracen-9(10H)-ylidene)amino)oxy)methyl 2-amino-3-methylpentanoate dihydrochloride]

solubility at 2 h [3, 9]: < 0.78 µM
solubility at 2 h [3, 10]: < 0.78 µM
% Compound remaining at 120 min ([4]; pH 1, 37° C.): 85%
% Compound remaining at 120 min ([4]; pH 6, 37° C.): 96%
SMILES: CCC(C)C(N)C(=O)OCON=C1c2cc(S(=O)(=O)N3C[C@H](C)C[C@H](C)C3)ccc2C(=NO)c2ccc(S(=O)(=O)N3C[C@H](C)C[C@H](C)C3)cc21 (stereo partly drawn) [Compound 38, ((((9E,10E)-2,7-bis(((3S,5R)-3,5-dimethylpiperidin-1-yl)sulfonyl)-10-(hydroxyimino)anthracen-9(10H)-ylidene)amino)oxy)methyl 2-amino-3-methylpentanoate]

solubility at 2 h ([3]; pH 1, room temperature): <0.78 µM
solubility at 2 h ([3]; pH 6, room temperature): <0.78 µM
% Compound remaining at 120 min ([4]; pH 1, 37° C.): 90%
% Compound remaining at 120 min ([4]; pH 6, 37° C.): 128%
SMILES: CC(C)[C@H](N)C(=O)OCON=C1c2cc(S(=O)(=O)N3C[C@H](C)C[C@H](C)C3)ccc2C(=NO)c2ccc(S(=O)(=O)N3C[C@H](C)C[C@H](C)C3)cc21.Cl [Compound 43, ((((9E,10E)-2,7-bis(((3R,5S)-3,5-dimethylpiperidin-1-yl)sulfonyl)-10-(hydroxyimino)anthracen-9(10H)-ylidene)amino)-oxy)methylvalinate hydrochloride]

The remaining lines, values behind:

SMILES: C[C@@H]1C[C@H](C)CN(S(=O)(=O)c2ccc3c(c2)C(=NO)c2cc(S(=O)(=O)N4C[C@H](C)C[C@H](C)C4)ccc2C3=NO)C1 [Compound 1, (9E,10E)-2,7-bis(((3R,5S)-3,5-dimethylpiperidin-1-yl)sulfonyl)anthracene-9,10-dione dioxime, reference compound]
Vd [1, 5]: 16.9 L/kg
Vd [1, 6]: 15 L/kg
AUC(0-inf) [1]: 446 ng·h/mL
AUC(0-t) [1]: 396 ng·h/mL
clearance [1]: 48.3 mL/min/kg
half-life [1]: 4 h
MRT last [1]: 3.56 h
AUCExtra [1]: 11.19%
Co [1]: 116.31 ng/mL
AUC(0-inf) ([2]; IV 1 mg/kg Compound 24): 873 ng·h/mL
AUC(0-t) ([2]; IV 1 mg/kg Compound 24): 752 ng·h/mL
MRT inf ([2]; IV 1 mg/kg Compound 24): 10.5 h
half-life [2, 7]: 9.39 h
AUC(0-t) ([2]; PO 10 mg/kg Compound 24): 229 ng·h/mL
Tmax ([2]; PO 10 mg/kg Compound 24): 1 h
Cmax [2, 8]: 52.5 ng/mL
bioavailability [2]: 3%

SMILES: C[C@@H]1C[C@H](C)CN(S(=O)(=O)c2ccc3c(c2)C(=NO)c2cc(S(=O)(=O)N4C[C@H](C)C[C@H](C)C4)ccc2C3=NOP(=O)(O)O)C1 [Compound 4, ((((9E,10E)-3,6-bis(((3R,5S)-3,5-dimethylpiperidin-1-yl)sulfonyl)-10-(hydroxyimino)-anthracen-9(10H)-ylidene)amino)oxy)phosphonic acid]
solubility at 2 h [3, 9]: < 0.78 µM
solubility at 2 h [3, 10]: > 100 µM
% Compound remaining at 120 min ([4]; pH 1, 37° C.): 96%
% Compound remaining at 120 min ([4]; pH 6, 37° C.): 101%

SMILES: C[C@@H]1C[C@H](C)CN(S(=O)(=O)c2ccc3c(c2)C(=NO)c2cc(S(=O)(=O)N4C[C@H](C)C[C@H](C)C4)ccc2C3=NOCOP(=O)(O)O)C1 [Compound 10, ((((9E,10E)-3,6-bis(((3S,5R)-3,5-dimethylpiperidin-1-yl)sulfonyl)-10-(hydroxyimino)anthracen-9(10H)-ylidene)amino)-oxy)methyl dihydrogen phosphate]
Vd [1, 5]: 3.31 L/kg
Vd [1, 6]: 0.39 L/kg
AUC(0-inf) [1]: 885 ng·h/mL
AUC(0-t) [1]: 869 ng·h/mL
clearance [1]: 24.1 mL/min/kg
half-life [1]: 1.59 h
MRT last [1]: 0.15 h
AUCExtra [1]: 1.81%
Co [1]: 11437.00 ng/mL
solubility at 2 h [3, 9]: < 0.78 µM
solubility at 2 h [3, 10]: < 0.78 µM
% Compound remaining at 120 min ([4]; pH 1, 37° C.): 101%
% Compound remaining at 120 min ([4]; pH 6, 37° C.): 79%

SMILES: CC(C)C[C@H](N)C(=O)OCON=C1c2ccc(S(=O)(=O)N3C[C@H](C)C[C@H](C)C3)cc2C(=NO)c2cc(S(=O)(=O)N3C[C@H](C)C[C@H](C)C3)ccc21.Cl [Compound 41, ((((9E,10E)-3,6-bis(((3R,5S)-3,5-dimethylpiperidin-1-yl)sulfonyl)-10-(hydroxyimino)anthracen-9(10H)-ylidene)amino)oxy)methyl leucinate hydrochloride]
solubility at 2 h ([3]; pH 1, room temperature): <0.78 µM
solubility at 2 h ([3]; pH 6, room temperature): <0.78 µM
% Compound remaining at 120 min ([4]; pH 1, 37° C.): 98%
% Compound remaining at 120 min ([4]; pH 6, 37° C.): 76%

SMILES: C[C@@H]1C[C@H](C)CN(S(=O)(=O)c2ccc3c(c2)C(=NOCOC(=O)C(N)C(C)(C)C)c2cc(S(=O)(=O)N4C[C@H](C)C[C@H](C)C4)ccc2C3=NO)C1 (stereo partly drawn) [Compound 46, ((((9E,10E)-2,7-bis(((3R,5S)-3,5-dimethyl-piperidin-1-yl)sulfonyl)-10-(hydroxyimino)anthracen-9(10H)-ylidene)amino)oxy)methyl-2-amino-3,3-dimethylbutanoate]
solubility at 2 h ([3]; pH 1, room temperature): <0.78 µM
solubility at 2 h ([3]; pH 6, room temperature): <0.78 µM
% Compound remaining at 120 min ([4]; pH 1, 37° C.): 93%
% Compound remaining at 120 min ([4]; pH 6, 37° C.): 97%
